Reference: patent publication US20230047905A1, “COMPOUNDS AND COMPOSITIONS FOR TREATING CONDITIONS ASSOCIATED WITH STING ACTIVITY” (IFM Due, Inc., priority 2018, published 2023)

Test system: Human STING
Experiment: STING reporter assay (luciferase) in THP1-Dual KO-IFNAR2 cells activated with 2'3'cGAMP
Assay type: cell-based
Details: 15 μM 2'3'cGAMP
Protocol: STING Pathway Modulation by the Compounds Described Herein was Measured Using THP1-Dual™ Cells (KO-IFNAR2).
THP1-Dual™ KO-IFNAR2 Cells (obtained from invivogen) were maintained in RPMI, 10% FCS, 5 ml P/S, 2 mM L-glut, 10 mM Hepes, and 1 mM sodium pyruvate. Compounds were spotted in empty 384 well tissue culture plates (Greiner 781182) by Echo for a final concentration of 0.0017-100 μM. Cells were plated into the TC plates at […], 2×10E6 cells/mL. For activation with STING ligand, 2′3′cGAMP (MW 718.38, obtained from Invivogen), was prepared in Optimem media.
The following solutions were prepared for each 1×384 plate: • Solution A: 2 mL Optimem with one of the following stimuli: • 60 uL of 10 mM 2′3′cGAMP ->150 μM stock • Solution B: 2 mL Optimem with 60 μL Lipofectamine 2000->Incubate 5 min at RT
2 mL of solution A and 2 ml Solution B was mixed and incubated for 20 min at room temperature (RT). 20 μL of transfection solution (A+B) was added on top of the plated cells, with a final 2′3′cGAMP concentration of 15 μM. The plates were then centrifuged immediately at 340 g for 1 minute, after which they were incubated at 37° C., 5% CO2, >98% humidity for 24h. Luciferase reporter activity was then measured. EC50 values were calculated by using standard methods known in the art.
Luciferase reporter assay: 10 μL of supernatant from the assay was transferred to white 384-plate with flat bottom and squared wells. One pouch of QUANTI-Luc™ Plus was dissolved in 25 mL of water. 100 μL of QLC Stabilizer per 25 mL of QUANTI-Luc™ Plus solution was added. 50 μL of QUANTI-Luc™ Plus/QLC solution per well was then added. Luminescence was measured on a Platereader (e.g., Spectramax I3X (Molecular Devices GF3637001)).
Luciferase reporter activity was then measured. EC50 or IC50 values were calculated by using standard methods known in the art.

[1] = Homo sapiens, THP1-Dual, 24 h, class symbols
[2] = Homo sapiens, THP1-Dual, 24 h, given as numeric bound

SMILES | IC50 [1] | also measured
Cc1ccc(S(N)(=O)=Nc2c[nH]c3ccccc23)cc1 (stereo not drawn) [Compound 111] | 5 to 100 µM | –
NS(=O)(=Nc1c[nH]c2ccccc12)c1ccc(F)cc1 (stereo not drawn) [Compound 108] | 5 to 100 µM | –
N[S@@](=O)(=Nc1c[nH]c2ccccc12)c1ccc(C(F)(F)F)cc1 (single isomer, unassigned) [Compound 1b, (R or S)—N-(1H-indol-3-yl)-4-(trifluoromethyl)benzenesulfonimidamide] | 0.2 to 1 µM | –
NS(=O)(=Nc1c[nH]c2cc(F)c(F)cc12)c1ccc(C(F)(F)F)cc1 (racemic) [Compound 2a] | – | IC50 (24h, class symbols): 0.2 to 1 µM
Cc1ccc(S(N)(=O)=Nc2c[nH]c3ccccc23)cc1 (racemic) [Compound 111a] | – | IC50 (24h, class symbols): 1 to 5 µM
NS(=O)(=Nc1c[nH]c2ccccc12)c1ccc(Cl)cc1 (stereo not drawn) [Compound 109] | 1 to 5 µM | –
NS(=O)(=Nc1c[nH]c2cc(F)c(F)cc12)c1ccc(C(F)(F)F)cc1 (stereo not drawn) [Compound 2] | 1 to 5 µM | –
N#Cc1cnc2[nH]cc(N=S(N)(=O)c3ccc(C(F)(F)F)cc3)c2c1 (racemic) [Compound 114b] | – | IC50 [2]: ≥ 100 µM
NS(=O)(=Nc1c[nH]nc1-c1ccccc1)c1ccc(C(F)(F)F)cc1 (racemic) [Compound 119a] | – | IC50 [2]: ≥ 100 µM
CCCCc1ccc(S(=N)(=O)Nc2ccc3[nH]ccc3c2)cc1 (stereo not drawn) [Compound 53] | 5 to 100 µM | –
NS(=O)(=Nc1c[nH]c2ccccc12)c1ccc(C(F)(F)F)cc1 (stereo not drawn) [Compound 1, N′-(1H-indol-3-yl)-4-(trifluoromethyl)benzenesulfonimidamide] | 0.2 to 1 µM | –
CC(C)OC(=O)NS(=O)(=Nc1c[nH]c2ccccc12)c1ccc(C(F)(F)F)cc1 (stereo not drawn) [Compound 102] | 5 to 100 µM | –
CNS(=O)(=Nc1cn(C)c2ccccc12)c1ccc(C(F)(F)F)cc1 (stereo not drawn) [Compound 105, N-methyl-N′-(1-methyl-1H-indol-3-yl)-4-(trifluoromethyl)benzenesulfonimidamide] | 5 to 100 µM | –
NS(=O)(=Nc1c[nH]c2ncc(F)cc12)c1ccc(C(F)(F)F)cc1 (stereo not drawn) [Compound 117] | 5 to 100 µM | –
CCCCc1ccc(S(N)(=O)=Nc2c[nH]c3ncc(F)cc23)cc1 (racemic) [Compound 116] | 5 to 100 µM | –
CCCCc1ccc(S(=N)(=O)Nc2ccc3cc[nH]c3c2)cc1 (stereo not drawn) [Compound 101] | 5 to 100 µM | –

SMILES | IC50 [1] | also measured
N[S@](=O)(=Nc1c[nH]c2ccccc12)c1ccc(C(F)(F)F)cc1 (single isomer, unassigned) [Compound 1a, (S or R)—N-(1H-indol-3-yl)-4-(trifluoromethyl)benzenesulfonimidamide] | 1 to 5 µM | –
CCCCc1ccc(S(N)(=O)=Nc2c[nH]nc2-c2ccccc2)cc1 (stereo not drawn) [Compound 113] | 5 to 100 µM | –
CNS(=O)(=Nc1c[nH]c2ccccc12)c1ccc(C(F)(F)F)cc1 (stereo not drawn) [Compound 112, N′-(1H-indol-3-yl)-N-methyl-4-(trifluoromethyl)benzenesulfonimidamide] | 5 to 100 µM | –
N#Cc1ccc2[nH]cc(N=S(N)(=O)c3ccc(C4CC4)cc3)c2c1 (stereo not drawn) [Compound 115] | 5 to 100 µM | –
Cc1ccccc1S(N)(=O)=Nc1c[nH]c2ccccc12 (racemic) [Compound 110a] | – | IC50 (24h, class symbols): 5 to 100 µM
NS(=O)(=Nc1c[nH]c2cc(F)c(F)cc12)c1ccc(C(F)(F)F)cc1 (racemic) [Compound 2b] | – | IC50 (24h, class symbols): 1 to 5 µM
Cc1ccccc1S(N)(=O)=Nc1c[nH]c2ccccc12 (stereo not drawn) [Compound 110] | 5 to 100 µM | –
CS(=O)(=O)n1cc(N=S(N)(=O)c2ccc(C(F)(F)F)cc2)c2ccccc21 (stereo not drawn) [Compound 104] | 5 to 100 µM | –
N#Cc1cnc2[nH]cc(N=S(N)(=O)c3ccc(C(F)(F)F)cc3)c2c1 (stereo not drawn) [Compound 114] | 5 to 100 µM | –
CCOC(=O)NS(=O)(=Nc1c[nH]c2ccccc12)c1ccc(C(F)(F)F)cc1 (stereo not drawn) [Compound 103] | 5 to 100 µM | –
Cc1cccc(S(N)(=O)=Nc2c[nH]c3ccccc23)c1 (stereo not drawn) [Compound 106] | 5 to 100 µM | –
Cc1ccccc1S(N)(=O)=Nc1c[nH]c2ccccc12 (racemic) [Compound 110b] | – | IC50 (24h, class symbols): 1 to 5 µM
Cc1ccc(S(N)(=O)=Nc2c[nH]c3ccccc23)cc1 (racemic) [Compound 111b] | – | IC50 (24h, class symbols): 5 to 100 µM
CN(C)S(=O)(=Nc1c[nH]c2ccccc12)c1ccc(C(F)(F)F)cc1 (stereo not drawn) [Compound 36, N′-(1H-indol-3-yl)-N,N-dimethyl-4-(trifluoromethyl)benzenesulfonimidamide] | 5 to 100 µM | –
NS(=O)(=Nc1c[nH]nc1-c1ccccc1)c1ccc(C(F)(F)F)cc1 (stereo not drawn) [Compound 119] | – | IC50 [2]: ≥ 100 µM
COC(=O)NS(=O)(=Nc1c[nH]c2ccccc12)c1ccc(C(F)(F)F)cc1 (stereo not drawn) [Compound 107, methyl (N-(1H-indol-3-yl)-4-(trifluoromethyl)phenylsulfonimidoyl)carbamate] | 5 to 100 µM | –

Now from value to compound, other results behind:

IC50 [1] | SMILES | also measured
5 to 100 µM | N#Cc1cnc2[nH]cc(N=S(N)(=O)c3ccc(C(F)(F)F)cc3)c2c1 (racemic) [Compound 114a] | –
5 to 100 µM | NS(=O)(=Nc1c[nH]c2ncc(F)cc12)c1ccc(C(F)(F)F)cc1 (racemic) [Compound 117a] | –
5 to 100 µM | CCCCc1ccc(S(N)(=O)=Nc2c[nH]nc2-c2ccccc2)cc1 (racemic) [Compound 113a] | –
5 to 100 µM | N#Cc1ccc2[nH]cc(N=S(N)(=O)c3ccc(C(F)(F)F)cc3)c2c1 (racemic) [Compound 5a] | –
1 to 5 µM | NS(=O)(=Nc1c[nH]c2ccccc12)c1ccc(Cl)cc1 (racemic) [Compound 109a] | –
5 to 100 µM | N#Cc1ccc2[nH]cc(N=S(N)(=O)c3ccc(C4CC4)cc3)c2c1 (racemic) [Compound 115a] | –
5 to 100 µM | NS(=O)(=Nc1c[nH]c2ccccc12)c1ccc(F)cc1 (racemic) [Compound 108a] | –
